Counter-ions that a name gives are not always drawn.

The conditions of series [1]: oral dosing in human patients; cited from earlier work.
Series [2] is described as follows: Solubility in ethanol water mixture. Format: physicochemical. Conditions: both crystal forms.

For the compound `CN1C[C@H]2c3ccccc3Oc3ccc(Cl)cc3[C@@H]2C1` (relative stereo) [Asenapine, trans-5-chloro-2-methyl-2,3,3a, 12b-tetrahydro-1 H-dibenz[2,3:6,7]oxepino-[4,5-c]pyrrole], the “Side effects of oral dosing” value in series [1] is “serious cardiotoxic side effects including postural hypotension”. For `CN1CC2c3ccccc3Oc3ccc(Cl)cc3C2C1` (centres unmarked) [Asenapine maleate], the Solubility entry in series [2] is reported as “good solubility”.

The values are drawn from patent US10085971B2, “Pharmaceutical solution of asenapine for sublingual or buccal use” (Navinta III Inc, priority 2016, dated 2018).
